Source: patent US20120029054A1, “RNA Interference Mediated Inhibition of GATA Binding Protein 3 (GATA3) Gene Expression Using Short Intefering Nucleic Acid (siNA)” (Merck Sharp & Dohme Corp., priority 2009, published 2012)

Experiments:
Assay type in all cases: cell-based
GATA3 mRNA [1] = assay: GATA3 mRNA knock-down (Taqman qRT-PCR) after RNAiMax transfection of mouse RAG cells; settings: 10 nM siNA, 24 hrs, average of 2 experiments
Outline: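 Murine RAG cells, 5000/well, transfected 24 h after plating with siNA (10 nM final) complexed with RNAiMax, harvested after 24 h. GATA3 mRNA quantified by TaqMan qRT-PCR with GAPDH reference; % knock-down by comparative Ct (2^−ΔΔCt) versus non-targeting control siNA.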

GATA3 mRNA [2] = assay: GATA3 mRNA knock-down (Taqman qRT-PCR) after RNAiMax transfection of human MCF7 cells; screen and IC50 dose response; settings: for % KD Human: 10 nM siNA, 24 hrs; for % KD GATA3 mRNA at 10 nM: Table 4, MCF7 cells; for % KD GATA3 10 nM: Table 5, MCF7 cells
Outline: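 MCF7 cells (5000/well, 24 h) transfected with siNA–RNAiMax complexes at 10 nM final siNA for 24 h without media change. GATA3 mRNA measured by TaqMan qRT-PCR, alongside β-actin and GAPDH probes. % knock-down by comparative Ct (2^−ΔΔCt) relative to non-targeting control siNA.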

human GAPDH mRNA = assay: GAPDH specificity screen in human MCF7 cells (β-Actin normalised qRT-PCR); settings: normalised to β-Actin, three experiments, mean ± S.D.
Experimental: A series of probes and primers were used to detect the various mRNA transcripts of the genes of β-Actin (human cell line only), and of GATA3 and GAPDH in mouse and human cell lines. All Taqman probes and primers for the experiments here-in described were supplied as pre-validated sets by Applied Biosystems, Inc. (see Table 2).
The assays were performed on an ABI 7900 instrument, according to the manufacturer's instructions. A TaqMan Gene Expression Master Mix (provided in the Cells-to-CT™, Applied Biosystems, Cat #4399002) was used. The PCR reactions were carried out at 50° C. for 2 min, 95° C. for 20 min followed by 40 cycles at 95° C. for 15 secs and 60° C. for 1 min.
The expression level of the gene of interest and % knock-down was calculated using Comparative Ct method: […]
These same three siNAs were tested for specificity in the human MCF7 cell line at 10 nM concentration to determine the effect of the GATA3 siNAs on the mRNA transcript of human GAPDH. In this assay, the samples from the primary screen, discussed above, O-Actin, a ubiquitously expressed ‘house-keeping’ gene, served as an endogenous control for normalization of the data.

[3] = mean ± S.D., * Hs00231122_m1 Taqman Assay
[4] = mean ± S.D., ** Hs00922328_m1 Taqman Assay

30263-DC: GATA3 siNA duplex, site 817: sense B cGccucuGcuucAuGGAuc TTB (SEQ 79), antisense GAUccAuGAAGcAGAGGcGUU (SEQ 80) (sense CGCCUCUGCUUCAUGGAUCTT; antisense GAUCCAUGAAGCAGAGGCGUU; chemistry not fully specified)
% KD Mouse (GATA3 mRNA [1]): 9 ± 13%
% KD Human (GATA3 mRNA [2]; MCF7 cells, * Hs00231122_m1 Taqman Assay): 74 ± 5* %
% KD Human (GATA3 mRNA [2]; MCF7 cells, ** Hs00922328_m1 Taqman Assay): 60 ± 10** %
IC50 (GATA3 mRNA [2]; MCF7 cells, mean ± S.D.): 104 ± 41 pM
% KD GATA3 mRNA at 10 nM (GATA3 mRNA [2]; [3]): 74 ± 5* %
% KD GATA3 mRNA at 10 nM (GATA3 mRNA [2]; [4]): 60 ± 10** %
% KD GATA3 10 nM (GATA3 mRNA [2]; [3]): 74 ± 5* %
% KD GATA3 10 nM (GATA3 mRNA [2]; [4]): 60 ± 10** %
% KD GAPDH 10 nM (human GAPDH mRNA): 11 ± 4%
